According to patent US11168345B2, “Methods of identifying a polypeptide target for degradation by a modulator of CRBN” (THE BROAD INSTITUTE, INC., priority 2015, dated 2021):

How the values were obtained:
[1] = biological target: T1, ZFP91 (Homo sapiens, UniProt Q96JP5+Q96SW2); settings: MM1S (multiple myeloma) and KG1 (Acute Myeloid Leukemia) cell lines; datasets of Kronke et al. 2014, 2015; cited from earlier work
T1 construct: endogenous in cells; host or cells: MM1S, KG1

[2] = biological target: T2, ZNF692 (Homo sapiens, UniProt Q96SW2+Q9BU19); settings: MM1S (multiple myeloma) and KG1 (Acute Myeloid Leukemia) cell lines; datasets of Kronke et al. 2014, 2015; cited from earlier work
T2 construct: endogenous in cells; host or cells: MM1S, KG1

[3] = biological target: T3, Aiolos C2H2 zinc finger 2 (AA146-168) (Homo sapiens, UniProt Q96SW2+Q9UKT9); experiment: Aiolos zinc finger 2 (amino acids 146-168) GFP fusion degradation, flow cytometry; assay type: cell-based
T3 construct: attaching zinc finger 2 (amino acids 146-168) to GFP via a flexible linker; expressed in transfected cells; host or cells: HEK293T

[4] = biological target: T4, RNF166 (Homo sapiens, UniProt Q96A37+Q96SW2); settings: MM1S (multiple myeloma) and KG1 (Acute Myeloid Leukemia) cell lines; datasets of Kronke et al. 2014, 2015; cited from earlier work
T4 construct: endogenous in cells; host or cells: MM1S, KG1

[5] = test system: RNF166; settings: for degradation of RNF166 in protein reporter vector (normalized EGFP:mCherry ratio): HEK293T cells, lentiviral transduction, 1 μM, cereblon and zinc finger-dependent; for degradation of zinc-finger-containing region of RNF166 fused to GFP: flow cytometry
Text: (§1) Bars corresponding to treatment groups A-D are consistent amongst all genetic background groups. Bar height is the average of three replicates, error bars represent 95% confidence intervals. […] Light gray (asterisk) amino acids designate positions which are components of the C2H2 zinc finger motif and are found across the C2H2 family of zinc fingers. Medium gray (black bar) amino acids are polymorphic sites in C2H2 zinc fingers.

[6] = test system: ZNF692; settings: for degradation of ZNF692 in protein reporter vector (normalized EGFP:mCherry ratio): HEK293T cells, lentiviral transduction, 1 μM, cereblon and zinc finger-dependent; for degradation of zinc-finger-containing region of ZNF692 fused to GFP: flow cytometry
Text: as §1

[7] = test system: ZFP91; settings: for degradation of ZFP91 in protein reporter vector (normalized EGFP:mCherry ratio): HEK293T cells, lentiviral transduction, 1 μM, cereblon and zinc finger-dependent; for degradation of zinc-finger-containing region of ZFP91 fused to GFP: flow cytometry
Text: as §1

T3 sequence (Q9UKT9 146-168 limits assumed): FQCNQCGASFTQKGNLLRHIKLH
T3 sequence (Q96SW2 whole entry, the tested form may be a part): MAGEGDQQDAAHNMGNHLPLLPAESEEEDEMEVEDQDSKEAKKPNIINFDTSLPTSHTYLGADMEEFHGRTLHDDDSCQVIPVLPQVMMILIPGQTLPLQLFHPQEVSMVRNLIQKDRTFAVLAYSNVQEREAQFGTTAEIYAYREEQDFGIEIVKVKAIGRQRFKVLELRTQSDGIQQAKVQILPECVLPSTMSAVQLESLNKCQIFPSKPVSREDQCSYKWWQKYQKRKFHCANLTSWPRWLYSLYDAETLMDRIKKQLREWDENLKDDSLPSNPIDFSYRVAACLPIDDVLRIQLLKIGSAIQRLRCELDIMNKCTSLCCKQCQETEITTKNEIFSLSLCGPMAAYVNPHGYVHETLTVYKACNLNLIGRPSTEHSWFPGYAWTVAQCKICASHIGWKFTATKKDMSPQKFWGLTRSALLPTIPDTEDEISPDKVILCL
T3 sequence (Q16531 whole entry partner, the tested form may be a part): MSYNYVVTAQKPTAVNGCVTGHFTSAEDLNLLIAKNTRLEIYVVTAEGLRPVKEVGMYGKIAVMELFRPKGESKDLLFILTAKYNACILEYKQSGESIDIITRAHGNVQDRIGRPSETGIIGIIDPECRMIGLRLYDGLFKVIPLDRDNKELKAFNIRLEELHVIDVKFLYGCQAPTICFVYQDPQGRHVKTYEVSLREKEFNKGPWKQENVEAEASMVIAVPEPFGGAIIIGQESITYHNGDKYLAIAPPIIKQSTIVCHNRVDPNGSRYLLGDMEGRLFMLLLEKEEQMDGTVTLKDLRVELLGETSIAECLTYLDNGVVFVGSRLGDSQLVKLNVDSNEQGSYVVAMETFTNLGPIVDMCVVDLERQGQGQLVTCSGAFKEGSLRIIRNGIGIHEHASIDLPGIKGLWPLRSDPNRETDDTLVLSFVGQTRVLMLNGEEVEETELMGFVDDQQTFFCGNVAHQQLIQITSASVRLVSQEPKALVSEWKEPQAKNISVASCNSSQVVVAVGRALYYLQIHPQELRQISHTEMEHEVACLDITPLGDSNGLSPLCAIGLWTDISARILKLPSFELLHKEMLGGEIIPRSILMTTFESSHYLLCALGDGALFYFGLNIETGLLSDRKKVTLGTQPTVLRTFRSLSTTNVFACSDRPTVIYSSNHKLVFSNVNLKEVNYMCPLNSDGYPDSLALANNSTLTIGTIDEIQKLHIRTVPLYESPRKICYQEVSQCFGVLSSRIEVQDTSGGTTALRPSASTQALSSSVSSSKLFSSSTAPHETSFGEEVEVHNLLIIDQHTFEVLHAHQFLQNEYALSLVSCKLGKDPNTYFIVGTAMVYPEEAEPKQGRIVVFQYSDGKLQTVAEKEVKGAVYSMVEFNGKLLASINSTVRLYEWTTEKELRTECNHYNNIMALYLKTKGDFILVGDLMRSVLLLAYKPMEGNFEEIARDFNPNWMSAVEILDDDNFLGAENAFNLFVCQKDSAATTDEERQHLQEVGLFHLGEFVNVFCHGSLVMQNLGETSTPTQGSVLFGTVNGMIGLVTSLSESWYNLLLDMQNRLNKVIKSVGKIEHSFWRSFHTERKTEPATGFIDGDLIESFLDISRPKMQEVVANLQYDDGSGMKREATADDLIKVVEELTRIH
T2 sequence (Q9BU19 whole entry): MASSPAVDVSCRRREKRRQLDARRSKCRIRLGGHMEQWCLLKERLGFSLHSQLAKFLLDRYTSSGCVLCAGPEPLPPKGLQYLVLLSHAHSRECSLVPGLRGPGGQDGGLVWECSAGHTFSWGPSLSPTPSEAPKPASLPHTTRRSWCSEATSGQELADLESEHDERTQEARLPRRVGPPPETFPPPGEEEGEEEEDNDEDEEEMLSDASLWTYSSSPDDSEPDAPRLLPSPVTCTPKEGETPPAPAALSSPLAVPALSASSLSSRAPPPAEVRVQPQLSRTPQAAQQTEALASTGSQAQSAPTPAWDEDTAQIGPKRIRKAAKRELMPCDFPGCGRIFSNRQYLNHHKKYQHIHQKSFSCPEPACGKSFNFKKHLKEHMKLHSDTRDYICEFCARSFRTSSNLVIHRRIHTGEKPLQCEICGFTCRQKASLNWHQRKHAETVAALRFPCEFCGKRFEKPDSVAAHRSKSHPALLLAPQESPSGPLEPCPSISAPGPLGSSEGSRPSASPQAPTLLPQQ
T2 sequence (Q96SW2 whole entry): as the sequence (Q96SW2 whole entry, the tested form may be a part) above
T2 sequence (Q16531 whole entry partner): as the sequence (Q16531 whole entry partner, the tested form may be a part) above
T4 sequence (Q96A37 whole entry): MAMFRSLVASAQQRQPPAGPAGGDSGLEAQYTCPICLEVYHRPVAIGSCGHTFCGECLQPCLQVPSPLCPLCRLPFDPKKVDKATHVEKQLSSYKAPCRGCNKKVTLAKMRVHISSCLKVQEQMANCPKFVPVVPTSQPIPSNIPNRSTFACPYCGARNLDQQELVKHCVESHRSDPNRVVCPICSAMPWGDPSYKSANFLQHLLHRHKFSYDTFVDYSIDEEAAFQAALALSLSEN
T4 sequence (Q96SW2 whole entry): as the sequence (Q96SW2 whole entry, the tested form may be a part) above
T4 sequence (Q16531 whole entry partner): as the sequence (Q16531 whole entry partner, the tested form may be a part) above
T1 sequence (Q96JP5 2-570 limits assumed): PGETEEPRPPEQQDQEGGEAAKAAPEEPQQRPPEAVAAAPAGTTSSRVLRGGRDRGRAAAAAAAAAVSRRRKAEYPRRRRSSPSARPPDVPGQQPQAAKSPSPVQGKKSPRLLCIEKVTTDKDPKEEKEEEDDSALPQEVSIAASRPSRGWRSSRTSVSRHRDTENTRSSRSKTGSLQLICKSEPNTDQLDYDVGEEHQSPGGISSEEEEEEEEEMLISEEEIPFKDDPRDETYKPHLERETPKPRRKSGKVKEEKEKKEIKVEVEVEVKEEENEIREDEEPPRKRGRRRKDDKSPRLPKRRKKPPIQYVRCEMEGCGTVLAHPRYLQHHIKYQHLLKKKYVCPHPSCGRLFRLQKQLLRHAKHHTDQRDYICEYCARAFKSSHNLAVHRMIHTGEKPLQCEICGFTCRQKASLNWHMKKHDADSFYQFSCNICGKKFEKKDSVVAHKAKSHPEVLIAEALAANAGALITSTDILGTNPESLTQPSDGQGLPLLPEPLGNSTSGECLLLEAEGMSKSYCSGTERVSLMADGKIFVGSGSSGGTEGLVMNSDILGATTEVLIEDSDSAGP
T1 sequence (Q96SW2 whole entry): as the sequence (Q96SW2 whole entry, the tested form may be a part) above
T1 sequence (Q16531 whole entry partner): as the sequence (Q16531 whole entry partner, the tested form may be a part) above

## O=C1CCC(N2C(=O)c3ccccc3C2=O)C(=O)N1 (centres unmarked) [thalidomide]
[1]
  ZFP91 protein abundance in the presence of drug: significant decrease in abundance
[2]
  ZNF692 protein abundance in the presence of drug: significant decrease in abundance
[3]
  second C2H2 zinc finger in Aiolos (amino acids 146-169) inducing targeting by the drug: both necessary and sufficient to induce targeting
[4]
  RNF166 protein abundance in the presence of drug: significant decrease in abundance
[5]
  degradation of RNF166 in protein reporter vector (normalized EGFP:mCherry ratio): degraded
  degradation of zinc-finger-containing region of RNF166 fused to GFP: degraded with varying efficiencies
[6]
  degradation of ZNF692 in protein reporter vector (normalized EGFP:mCherry ratio): degraded
  degradation of zinc-finger-containing region of ZNF692 fused to GFP: degraded with varying efficiencies
[7]
  degradation of ZFP91 in protein reporter vector (normalized EGFP:mCherry ratio): degraded
  degradation of zinc-finger-containing region of ZFP91 fused to GFP: degraded with varying efficiencies

## Nc1cccc2c1C(=O)N(C1CCC(=O)NC1=O)C2=O (centres unmarked) [pomalidomide]
[3]
  second C2H2 zinc finger in Aiolos (amino acids 146-169) inducing targeting by the drug: both necessary and sufficient to induce targeting
[5]
  degradation of RNF166 in protein reporter vector (normalized EGFP:mCherry ratio): degraded
  degradation of zinc-finger-containing region of RNF166 fused to GFP: degraded with varying efficiencies
[6]
  degradation of ZNF692 in protein reporter vector (normalized EGFP:mCherry ratio): degraded
  degradation of zinc-finger-containing region of ZNF692 fused to GFP: degraded with varying efficiencies
[7]
  degradation of ZFP91 in protein reporter vector (normalized EGFP:mCherry ratio): degraded
  degradation of zinc-finger-containing region of ZFP91 fused to GFP: degraded with varying efficiencies
